Data published in ChEMBL document CHEMBL5576038, “Design of a novel long-acting dual GLP-1/GIP receptor agonist” (Bioorg Med Chem, 2024).
Where a SMILES comes first, the peptide text is derived from it. [ ]: non-standard residue; d: D form. The star is where a group is joined. X1 = N[C@@H](CCCCNC(=O)CC[C@H](NC(=O)CCCCCCCCCCCCCCCCCCC(=O)O)C(=O)O)C(=O)NCCCC[C@H](N)C(=O)N[C@@H](CCCCNC(=O)C*)C(=O)O; X6 = N[C@@H](CCCCNC(=O)CC[C@H](NC(=O)CCCCCCCCCCCCCCCCC(=O)O)C(=O)O)C(=O)NCCCC[C@H](N)C(=O)N[C@@H](CCCCNC(=O)C*)C(=O)O; X3 = O=C(O)CCCCCCCCCCCCCCCCC(=O)NCCOCCOCC(=O)N[C@@H](CCC(=O)N[C@@H](CCC(=O)N[C@@H](CCCCNC(=O)C*)C(=O)O)C(=O)O)C(=O)O; X5 = O=C(O)CCCCCCCCCCCCCCCCCCC(=O)N[C@@H](CCC(=O)NCCOCCOCC(=O)NCCOCCOCC(=O)N[C@@H](CCCCNC(=O)C*)C(=O)O)C(=O)O; Aib = CC(C)(N)C(=O)O

What was measured:
[1] = biological target: T1, Gastric inhibitory polypeptide receptor (Homo sapiens, UniProt P48546); assay: Agonist activity at human GIPR expressed in CHO cells assessed as increase in cAMP production incubated for 30 mins by Eu-cAMP tracer based microplate reader analysis; type: functional, cell-based
T1 sequence (P48546 whole entry): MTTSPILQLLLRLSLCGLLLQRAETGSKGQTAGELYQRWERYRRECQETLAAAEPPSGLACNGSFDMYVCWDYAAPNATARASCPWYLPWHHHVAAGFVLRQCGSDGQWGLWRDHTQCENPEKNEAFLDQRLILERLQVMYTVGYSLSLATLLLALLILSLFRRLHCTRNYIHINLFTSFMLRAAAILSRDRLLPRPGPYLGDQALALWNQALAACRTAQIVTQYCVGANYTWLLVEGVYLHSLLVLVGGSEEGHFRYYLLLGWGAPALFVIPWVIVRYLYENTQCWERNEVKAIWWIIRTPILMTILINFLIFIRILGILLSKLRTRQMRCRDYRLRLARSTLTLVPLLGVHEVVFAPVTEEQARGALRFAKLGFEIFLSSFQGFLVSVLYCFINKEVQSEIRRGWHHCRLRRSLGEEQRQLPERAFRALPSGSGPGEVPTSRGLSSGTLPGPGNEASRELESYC

[2] = biological target: Glucagon-like peptide 1 receptor (Homo sapiens, UniProt P43220); assay: Agonist activity at human GLP-1R expressed in CHO cells assessed as increase in cAMP production incubated for 30 mins by Eu-cAMP tracer based microplate reader analysis; type: functional, cell-based
Sequence of Glucagon-like peptide 1 receptor (P43220 whole entry): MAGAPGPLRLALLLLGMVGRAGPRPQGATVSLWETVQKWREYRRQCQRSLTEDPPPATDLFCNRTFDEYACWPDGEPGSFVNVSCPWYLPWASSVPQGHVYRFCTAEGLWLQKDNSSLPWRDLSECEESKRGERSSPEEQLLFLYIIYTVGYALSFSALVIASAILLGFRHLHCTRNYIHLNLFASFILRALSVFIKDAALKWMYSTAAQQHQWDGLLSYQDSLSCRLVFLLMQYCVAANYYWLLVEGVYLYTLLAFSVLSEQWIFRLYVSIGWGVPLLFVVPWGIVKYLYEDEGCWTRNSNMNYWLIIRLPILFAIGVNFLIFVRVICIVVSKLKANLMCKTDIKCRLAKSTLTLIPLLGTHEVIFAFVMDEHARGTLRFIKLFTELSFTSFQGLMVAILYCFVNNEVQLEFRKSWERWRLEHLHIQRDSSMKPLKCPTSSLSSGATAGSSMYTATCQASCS

SMILES	EC50 [1] [nM]	EC50 [2] [nM]
CC(C)C[C@H](NC(=O)[C@H](CC(C)C)NC(=O)[C@H](Cc1c[nH]c2ccccc12)NC(=O)[C@H](CCC(N)=O)NC(=O)[C@@H](NC(=O)[C@H](Cc1ccccc1)NC(=O)[C@H](CC(C)C)NC(=O)[C@H](CSCC(=O)NCCCC[C@H](NC(=O)[C@@H](N)CCCCNC(=O)[C@@H](N)CCCCNC(=O)CC[C@H](NC(=O)CCCCCCCCCCCCCCCCC(=O)O)C(=O)O)C(=O)O)NC(=O)[C@H](C)NC(=O)[C@H](C)NC(=O)[C@H](CCC(N)=O)NC(=O)[C@H](CCCCN)NC(=O)[C@H](CCC(=O)O)NC(=O)[C@H](CC(C)C)NC(=O)[C@H](Cc1ccc(O)cc1)NC(=O)[C@H](Cc1ccc(O)cc1)NC(=O)[C@H](CO)NC(=O)[C@H](Cc1ccc(O)cc1)NC(=O)[C@H](CC(=O)O)NC(=O)[C@H](CO)NC(=O)[C@@H](NC(=O)[C@H](Cc1ccccc1)NC(=O)[C@@H](NC(=O)CNC(=O)[C@H](CCC(=O)O)NC(=O)C(C)(C)NC(=O)[C@@H](N)Cc1ccc(O)cc1)[C@@H](C)O)[C@@H](C)O)C(C)C)C(=O)N[C@@H](C)C(=O)NCC(=O)NCC(=O)N1CCC[C@H]1C(=O)N[C@@H](CO)C(=O)N[C@@H](CO)C(=O)NCC(=O)N[C@@H](C)C(=O)N1CCC[C@H]1C(=O)N1CCC[C@H]1C(=O)N1CCC[C@H]1C(=O)N[C@@H](CO)C(N)=O (H-Y[Aib]EGTFTSDYSYYLEKQAAC(X6)LFVQWLLAGGPSSGAPPPS-NH2)	19.2	1.26
CC(C)C[C@H](NC(=O)[C@H](CC(C)C)NC(=O)[C@H](Cc1c[nH]c2ccccc12)NC(=O)[C@H](CCC(N)=O)NC(=O)[C@@H](NC(=O)[C@H](Cc1ccccc1)NC(=O)[C@H](CC(C)C)NC(=O)[C@H](CS)NC(=O)[C@H](C)NC(=O)[C@H](C)NC(=O)[C@H](CCC(N)=O)NC(=O)[C@H](CCCCN)NC(=O)[C@H](CCC(=O)O)NC(=O)[C@H](CC(C)C)NC(=O)[C@H](Cc1ccc(O)cc1)NC(=O)[C@H](Cc1ccc(O)cc1)NC(=O)[C@H](CO)NC(=O)[C@H](Cc1ccc(O)cc1)NC(=O)[C@H](CC(=O)O)NC(=O)[C@H](CO)NC(=O)[C@@H](NC(=O)[C@H](Cc1ccccc1)NC(=O)[C@@H](NC(=O)CNC(=O)[C@H](CCC(=O)O)NC(=O)C(C)(C)NC(=O)[C@@H](N)Cc1ccc(O)cc1)[C@@H](C)O)[C@@H](C)O)C(C)C)C(=O)N[C@@H](C)C(=O)NCC(=O)NCC(=O)N1CCC[C@H]1C(=O)N[C@@H](CO)C(=O)N[C@@H](CO)C(=O)NCC(=O)N[C@@H](C)C(=O)N1CCC[C@H]1C(=O)N1CCC[C@H]1C(=O)N1CCC[C@H]1C(=O)N[C@@H](CO)C(N)=O (H-Y[Aib]EGTFTSDYSYYLEKQAACLFVQWLLAGGPSSGAPPPS-NH2)	0.6	0.29
CC(C)C[C@H](NC(=O)[C@H](CC(C)C)NC(=O)[C@H](Cc1c[nH]c2ccccc12)NC(=O)[C@H](CCC(N)=O)NC(=O)[C@@H](NC(=O)[C@H](Cc1ccccc1)NC(=O)[C@H](CS)NC(=O)[C@H](CCCCN)NC(=O)[C@H](C)NC(=O)[C@H](C)NC(=O)[C@H](CCC(N)=O)NC(=O)[C@H](CCCCN)NC(=O)[C@H](CCC(=O)O)NC(=O)[C@H](CC(C)C)NC(=O)[C@H](Cc1ccc(O)cc1)NC(=O)[C@H](Cc1ccc(O)cc1)NC(=O)[C@H](CO)NC(=O)[C@H](Cc1ccc(O)cc1)NC(=O)[C@H](CC(=O)O)NC(=O)[C@H](CO)NC(=O)[C@@H](NC(=O)[C@H](Cc1ccccc1)NC(=O)[C@@H](NC(=O)CNC(=O)[C@H](CCC(=O)O)NC(=O)C(C)(C)NC(=O)[C@@H](N)Cc1ccc(O)cc1)[C@@H](C)O)[C@@H](C)O)C(C)C)C(=O)N[C@@H](C)C(=O)NCC(=O)NCC(=O)N1CCC[C@H]1C(=O)N[C@@H](CO)C(=O)N[C@@H](CO)C(=O)NCC(=O)N[C@@H](C)C(=O)N1CCC[C@H]1C(=O)N1CCC[C@H]1C(=O)N1CCC[C@H]1C(=O)N[C@@H](CO)C(N)=O (H-Y[Aib]EGTFTSDYSYYLEKQAAKCFVQWLLAGGPSSGAPPPS-NH2)	14.8	6.51
CC(C)C[C@H](NC(=O)[C@H](CC(C)C)NC(=O)[C@H](Cc1c[nH]c2ccccc12)NC(=O)[C@H](CSCC(=O)NCCCC[C@H](NC(=O)[C@@H](N)CCCCNC(=O)[C@@H](N)CCCCNC(=O)CC[C@H](NC(=O)CCCCCCCCCCCCCCCCCCC(=O)O)C(=O)O)C(=O)O)NC(=O)[C@@H](NC(=O)[C@H](Cc1ccccc1)NC(=O)[C@H](CC(C)C)NC(=O)[C@H](CCCCN)NC(=O)[C@H](C)NC(=O)[C@H](C)NC(=O)[C@H](CCC(N)=O)NC(=O)[C@H](CCCCN)NC(=O)[C@H](CCC(=O)O)NC(=O)[C@H](CC(C)C)NC(=O)[C@H](Cc1ccc(O)cc1)NC(=O)[C@H](Cc1ccc(O)cc1)NC(=O)[C@H](CO)NC(=O)[C@H](Cc1ccc(O)cc1)NC(=O)[C@H](CC(=O)O)NC(=O)[C@H](CO)NC(=O)[C@@H](NC(=O)[C@H](Cc1ccccc1)NC(=O)[C@@H](NC(=O)CNC(=O)[C@H](CCC(=O)O)NC(=O)C(C)(C)NC(=O)[C@@H](N)Cc1ccc(O)cc1)[C@@H](C)O)[C@@H](C)O)C(C)C)C(=O)N[C@@H](C)C(=O)NCC(=O)NCC(=O)N1CCC[C@H]1C(=O)N[C@@H](CO)C(=O)N[C@@H](CO)C(=O)NCC(=O)N[C@@H](C)C(=O)N1CCC[C@H]1C(=O)N1CCC[C@H]1C(=O)N1CCC[C@H]1C(=O)N[C@@H](CO)C(N)=O (H-Y[Aib]EGTFTSDYSYYLEKQAAKLFVC(X1)WLLAGGPSSGAPPPS-NH2)	7.2	0.29
CC(C)C[C@H](NC(=O)[C@H](CC(C)C)NC(=O)[C@H](Cc1c[nH]c2ccccc12)NC(=O)[C@H](CSCC(=O)NCCCC[C@H](NC(=O)CC[C@H](NC(=O)CC[C@H](NC(=O)COCCOCCNC(=O)CCCCCCCCCCCCCCCCC(=O)O)C(=O)O)C(=O)O)C(=O)O)NC(=O)[C@@H](NC(=O)[C@H](Cc1ccccc1)NC(=O)[C@H](CC(C)C)NC(=O)[C@H](CCCCN)NC(=O)[C@H](C)NC(=O)[C@H](C)NC(=O)[C@H](CCC(N)=O)NC(=O)[C@H](CCCCN)NC(=O)[C@H](CCC(=O)O)NC(=O)[C@H](CC(C)C)NC(=O)[C@H](Cc1ccc(O)cc1)NC(=O)[C@H](Cc1ccc(O)cc1)NC(=O)[C@H](CO)NC(=O)[C@H](Cc1ccc(O)cc1)NC(=O)[C@H](CC(=O)O)NC(=O)[C@H](CO)NC(=O)[C@@H](NC(=O)[C@H](Cc1ccccc1)NC(=O)[C@@H](NC(=O)CNC(=O)[C@H](CCC(=O)O)NC(=O)C(C)(C)NC(=O)[C@@H](N)Cc1ccc(O)cc1)[C@@H](C)O)[C@@H](C)O)C(C)C)C(=O)N[C@@H](C)C(=O)NCC(=O)NCC(=O)N1CCC[C@H]1C(=O)N[C@@H](CO)C(=O)N[C@@H](CO)C(=O)NCC(=O)N[C@@H](C)C(=O)N1CCC[C@H]1C(=O)N1CCC[C@H]1C(=O)N1CCC[C@H]1C(=O)N[C@@H](CO)C(N)=O (H-Y[Aib]EGTFTSDYSYYLEKQAAKLFVC(X3)WLLAGGPSSGAPPPS-NH2)	0.46	0.29
CC(C)C[C@H](NC(=O)[C@H](CC(C)C)NC(=O)[C@H](Cc1c[nH]c2ccccc12)NC(=O)[C@H](CSCC(=O)NCCCC[C@H](NC(=O)COCCOCCNC(=O)COCCOCCNC(=O)CC[C@H](NC(=O)CCCCCCCCCCCCCCCCCCC(=O)O)C(=O)O)C(=O)O)NC(=O)[C@@H](NC(=O)[C@H](Cc1ccccc1)NC(=O)[C@H](CC(C)C)NC(=O)[C@H](CCCCN)NC(=O)[C@H](C)NC(=O)[C@H](C)NC(=O)[C@H](CCC(N)=O)NC(=O)[C@H](CCCCN)NC(=O)[C@H](CCC(=O)O)NC(=O)[C@H](CC(C)C)NC(=O)[C@H](Cc1ccc(O)cc1)NC(=O)[C@H](Cc1ccc(O)cc1)NC(=O)[C@H](CO)NC(=O)[C@H](Cc1ccc(O)cc1)NC(=O)[C@H](CC(=O)O)NC(=O)[C@H](CO)NC(=O)[C@@H](NC(=O)[C@H](Cc1ccccc1)NC(=O)[C@@H](NC(=O)CNC(=O)[C@H](CCC(=O)O)NC(=O)C(C)(C)NC(=O)[C@@H](N)Cc1ccc(O)cc1)[C@@H](C)O)[C@@H](C)O)C(C)C)C(=O)N[C@@H](C)C(=O)NCC(=O)NCC(=O)N1CCC[C@H]1C(=O)N[C@@H](CO)C(=O)N[C@@H](CO)C(=O)NCC(=O)N[C@@H](C)C(=O)N1CCC[C@H]1C(=O)N1CCC[C@H]1C(=O)N1CCC[C@H]1C(=O)N[C@@H](CO)C(N)=O (H-Y[Aib]EGTFTSDYSYYLEKQAAKLFVC(X5)WLLAGGPSSGAPPPS-NH2)	3.73	0.89
CC(C)C[C@H](NC(=O)[C@H](CC(C)C)NC(=O)[C@H](Cc1c[nH]c2ccccc12)NC(=O)[C@H](CSCC(=O)NCCCC[C@H](NC(=O)[C@@H](N)CCCCNC(=O)[C@@H](N)CCCCNC(=O)CC[C@H](NC(=O)CCCCCCCCCCCCCCCCC(=O)O)C(=O)O)C(=O)O)NC(=O)[C@@H](NC(=O)[C@H](Cc1ccccc1)NC(=O)[C@H](CC(C)C)NC(=O)[C@H](CCCCN)NC(=O)[C@H](C)NC(=O)[C@H](C)NC(=O)[C@H](CCC(N)=O)NC(=O)[C@H](CCCCN)NC(=O)[C@H](CCC(=O)O)NC(=O)[C@H](CC(C)C)NC(=O)[C@H](Cc1ccc(O)cc1)NC(=O)[C@H](Cc1ccc(O)cc1)NC(=O)[C@H](CO)NC(=O)[C@H](Cc1ccc(O)cc1)NC(=O)[C@H](CC(=O)O)NC(=O)[C@H](CO)NC(=O)[C@@H](NC(=O)[C@H](Cc1ccccc1)NC(=O)[C@@H](NC(=O)CNC(=O)[C@H](CCC(=O)O)NC(=O)C(C)(C)NC(=O)[C@@H](N)Cc1ccc(O)cc1)[C@@H](C)O)[C@@H](C)O)C(C)C)C(=O)N[C@@H](C)C(=O)NCC(=O)NCC(=O)N1CCC[C@H]1C(=O)N[C@@H](CO)C(=O)N[C@@H](CO)C(=O)NCC(=O)N[C@@H](C)C(=O)N1CCC[C@H]1C(=O)N1CCC[C@H]1C(=O)N1CCC[C@H]1C(=O)N[C@@H](CO)C(N)=O (H-Y[Aib]EGTFTSDYSYYLEKQAAKLFVC(X6)WLLAGGPSSGAPPPS-NH2)	2.76	0.4
